What all share (format): cell-based
One assay deals with hGLP-1R (Homo sapiens, UniProt P43220). Description: Functional cAMP formation (HTRF) in HEK-293 clonal cells expressing hGLP-1R, 0.1% bovine casein, without or with 1.0% human serum albumin. More on the design: expressed in transfected cells. Conditions: for EC50: cAMP, 0.1% bovine casein (no human serum albumin), geometric mean. In a few lines: (§1)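 Cells were stimulated with peptide for 30 min at 37° C, then lysed in buffer carrying cAMP-d2 and anti-cAMP Eu3+-cryptate for a competitive HTRF read after at least 60 min at room temperature. The 665/620 nm ratio was converted to nM cAMP against a standard curve.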

The target of another assay is T1, hGCGR (Homo sapiens, UniProt P47871).
T1 construct: expressed in transfected cells
As to the kind of experiment: Functional cAMP formation (HTRF) in HEK-293 clonal cells expressing hGCGR, 0.1% bovine casein, without or with 1.0% human serum albumin. An outline of the steps: as §1
A general note: Cyclic AMP is a second messenger, typically raised through Gs and lowered through Gi signalling.

The target of the next assay is T2, hGIPR (Homo sapiens, UniProt P48546).
T2 construct: expressed in transfected cells
T2 sequence (P48546 22-466): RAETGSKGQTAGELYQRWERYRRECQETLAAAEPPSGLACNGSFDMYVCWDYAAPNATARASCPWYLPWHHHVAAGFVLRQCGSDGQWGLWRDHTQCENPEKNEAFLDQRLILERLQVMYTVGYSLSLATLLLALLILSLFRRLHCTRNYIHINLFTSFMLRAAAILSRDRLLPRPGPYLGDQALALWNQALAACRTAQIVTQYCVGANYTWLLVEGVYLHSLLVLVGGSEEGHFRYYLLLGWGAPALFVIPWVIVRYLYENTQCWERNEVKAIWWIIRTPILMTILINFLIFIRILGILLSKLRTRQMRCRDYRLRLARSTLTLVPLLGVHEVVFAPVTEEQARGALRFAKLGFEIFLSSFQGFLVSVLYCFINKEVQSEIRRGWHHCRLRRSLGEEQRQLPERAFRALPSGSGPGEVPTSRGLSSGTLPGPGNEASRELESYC
Description: Functional cAMP formation (HTRF) in HEK-293 clonal cells expressing hGIPR, 0.1% bovine casein, without or with 1.0% human serum albumin. Particulars: for EC50: cAMP. In a few lines: as §1

[1] abbreviates: hGLP-1R EC50, nM (SEM, n), incubated at 37° C.
The mark [2] stands for this setting: hGCGR EC50, nM (SEM, n), cAMP, incubated at 37° C., 0.1% bovine casein (no human serum albumin), geometric mean.
[3] abbreviates: hGIPR EC50, nM (SEM, n), incubated at 37° C., 0.1% bovine casein (no human serum albumin), geometric mean.

Read-outs that look alike come from different tables or passages of the source. *1 amine or outer side, *2 acyl side, *3 side chain or, on linkers, in order; H or OH if unused. Where a SMILES comes first, the peptide text is derived from it. Side-chain parts run from the residue outwards. [ ]: non-standard residue; d: D form. The star is where a group is joined. αMePhe(2-F) = C[C@](N)(Cc1ccccc1F)C(=O)O; γGlu = O=C(O)[C@H](CCC(=O)[*:2])N[*:1]; C14 diacid = O=C(O)CCCCCCCCCCCCC(=O)*; αMeY = C[C@](N)(Cc1ccc(O)cc1)C(=O)O; αMeL = CC(C)C[C@](C)(N)C(=O)O; Orn = NCCC[C@H](N)C(=O)O; AEEA = NCCOCCOCC(=O)O; Aib = CC(C)(N)C(=O)O

Chain of hGLP-1R (P43220 24-463): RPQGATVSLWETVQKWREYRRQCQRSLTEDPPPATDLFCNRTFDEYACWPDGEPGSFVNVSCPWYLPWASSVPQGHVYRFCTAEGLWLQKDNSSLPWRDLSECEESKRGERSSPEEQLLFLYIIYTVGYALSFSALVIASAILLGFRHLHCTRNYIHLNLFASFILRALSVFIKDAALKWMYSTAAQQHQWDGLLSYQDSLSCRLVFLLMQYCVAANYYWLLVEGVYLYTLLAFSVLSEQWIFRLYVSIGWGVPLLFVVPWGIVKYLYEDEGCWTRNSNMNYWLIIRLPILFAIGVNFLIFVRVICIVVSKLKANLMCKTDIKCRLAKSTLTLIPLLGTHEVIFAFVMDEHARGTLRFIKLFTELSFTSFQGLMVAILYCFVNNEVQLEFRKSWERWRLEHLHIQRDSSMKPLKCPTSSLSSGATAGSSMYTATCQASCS
T1 sequence (P47871 26-477): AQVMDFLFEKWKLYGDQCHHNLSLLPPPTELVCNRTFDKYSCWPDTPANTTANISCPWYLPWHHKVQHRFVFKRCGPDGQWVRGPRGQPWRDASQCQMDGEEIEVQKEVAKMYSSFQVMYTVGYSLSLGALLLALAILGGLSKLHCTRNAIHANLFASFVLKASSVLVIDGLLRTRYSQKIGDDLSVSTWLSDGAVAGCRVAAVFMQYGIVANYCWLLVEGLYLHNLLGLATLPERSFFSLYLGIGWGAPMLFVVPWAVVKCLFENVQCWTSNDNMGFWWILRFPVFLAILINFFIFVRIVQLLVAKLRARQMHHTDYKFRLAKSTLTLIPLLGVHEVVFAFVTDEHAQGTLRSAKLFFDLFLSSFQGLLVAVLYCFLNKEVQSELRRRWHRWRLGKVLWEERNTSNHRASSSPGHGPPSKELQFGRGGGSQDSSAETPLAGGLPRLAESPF

Take `CC[C@H](C)[C@H](NC(=O)[C@H](CC(C)C)NC(=O)[C@](C)(Cc1ccc(O)cc1)NC(=O)[C@@H](CCC(=O)O)NC(=O)[C@@H](NC(=O)[C@H](Cc1ccccc1)NC(=O)[C@H](CCCCNC(=O)COCCOCCNC(=O)COCCOCCNC(=O)CC[C@H](NC(=O)CCCCCCCCCCCCC(=O)O)C(=O)O)NC(=O)C(C)(C)NC(=O)[C@H](CCC(N)=O)NC(=O)[C@H](C)NC(=O)[C@H](CCCCNC(=O)COCCOCCNC(=O)COCCOCCNC(=O)CC[C@H](NC(=O)CCCCCCCCCCCCC(=O)O)C(=O)O)NC(=O)[C@H](CCCN)NC(=O)[C@H](CC(=O)O)NC(=O)[C@H](CC(C)C)NC(=O)[C@](C)(CC(C)C)NC(=O)[C@@H](NC(=O)C(C)(C)NC(=O)[C@@H](NC(=O)[C@H](CC(=O)O)NC(=O)[C@H](CO)NC(=O)[C@@H](NC(=O)[C@](C)(Cc1ccccc1F)NC(=O)[C@@H](NC(=O)CNC(=O)[C@H](CCC(=O)O)NC(=O)C(C)(C)NC(=O)[C@@H](N)Cc1ccc(O)cc1)[C@@H](C)O)[C@@H](C)O)C(C)C)[C@@H](C)CC)[C@@H](C)CC)C(=O)N[C@@H](CCCN)C(=O)NCC(=O)NCC(=O)N1CCC[C@H]1C(=O)N[C@@H](CO)C(=O)N[C@@H](CO)C(=O)NCC(=O)N[C@@H](C)C(=O)N1CCC[C@H]1C(=O)N1CCC[C@H]1C(=O)N1CCC[C@H]1C(=O)N[C@@H](CO)C(N)=O` [Example 407] (H-Y[Aib]EGT[αMePhe(2-F)]TSDV[Aib]I[αMeL]LD[Orn]K([AEEA-AEEA-γGlu-C14 diacid])AQ[Aib]K([AEEA-AEEA-γGlu-C14 diacid])FI[dE][αMeY]LI[Orn]GGPSSGAPPPS-NH2): the Emax on hGLP-1R (HEK293, cAMP, 37° C., 0.1% bovine casein and 1.0% human serum albumin, percent of maximal response to GLP-1(7-36)NH2, read-out: hGLP-1R Emax, % ± SEM) turned out to be 97.2%; at hGLP-1R (HEK293, cAMP, 37° C., 0.1% bovine casein, percent of maximal response to GLP-1(7-36)NH2, arithmetic mean, read-out: hGLP-1R Emax, % ± SEM), 100%; at hGIPR (HEK293, cAMP, 37° C., 0.1% bovine casein and 1.0% human serum albumin, percent of maximal response to GIP(1-42)NH2, read-out: hGIPR Emax, % ± SEM), 95.4%. Besides, the EC50 at hGLP-1R (37° C., read-out: hGLP-1R EC50, nM (SEM, n)) is 0.156 nM; on hGCGR (cAMP, 37° C., 0.1% bovine casein (no human serum albumin), geometric mean, read-out: hGCGR EC50, nM (SEM, n)), over 9950 nM; at hGCGR (cAMP, 37° C., 0.1% bovine casein and 1.0% human serum albumin, geometric mean (SEM, n), read-out: hGCGR EC50, nM (SEM, n)) it was over 9950 nM; on hGIPR (37° C., 0.1% bovine casein (no human serum albumin), geometric mean, read-out: hGIPR EC50, nM (SEM, n)), 0.0114 nM; on hGIPR (37° C., 0.1% bovine casein and 1.0% human serum albumin, geometric mean (SEM, n), read-out: hGIPR EC50, nM (SEM, n)), 1.87 nM.
`CC[C@H](C)[C@H](NC(=O)[C@H](CC(C)C)NC(=O)[C@](C)(Cc1ccc(O)cc1)NC(=O)[C@H](CCCCNC(=O)COCCOCCNC(=O)COCCOCCNC(=O)CC[C@H](NC(=O)CCCCCCCCCCCCC(=O)O)C(=O)O)NC(=O)[C@@H](NC(=O)[C@](C)(Cc1ccccc1)NC(=O)[C@H](CCC(=O)O)NC(=O)C(C)(C)NC(=O)[C@H](CCC(N)=O)NC(=O)[C@H](C)NC(=O)[C@H](CCCCNC(=O)COCCOCCNC(=O)COCCOCCNC(=O)CC[C@H](NC(=O)CCCCCCCCCCCCC(=O)O)C(=O)O)NC(=O)[C@H](CCCN)NC(=O)[C@H](CC(=O)O)NC(=O)[C@H](CC(C)C)NC(=O)[C@](C)(CC(C)C)NC(=O)[C@@H](NC(=O)[C@H](CO)NC(=O)[C@H](Cc1ccncc1)NC(=O)[C@H](CC(=O)O)NC(=O)[C@H](CO)NC(=O)[C@@H](NC(=O)[C@](C)(Cc1ccccc1F)NC(=O)[C@@H](NC(=O)CNC(=O)[C@H](CCC(=O)O)NC(=O)C(C)(C)NC(=O)[C@@H](N)Cc1ccc(O)cc1)[C@@H](C)O)[C@@H](C)O)[C@@H](C)CC)[C@@H](C)CC)C(=O)N[C@@H](CCC(=O)O)C(=O)NCC(=O)NCC(=O)N1CCC[C@H]1C(=O)N[C@@H](CO)C(=O)N[C@@H](CO)C(=O)NCC(=O)N[C@@H](C)C(=O)N1CCC[C@H]1C(=O)N1CCC[C@H]1C(=O)N1CCC[C@H]1C(=O)N[C@@H](CO)C(N)=O` [Example 82]: the EC50 at hGLP-1R (setting [1]) was 4.78 nM; at hGCGR (setting [2]), over 9950 nM; on hGIPR (setting [3]), 0.0206 nM. In addition, the Emax at hGIPR (HEK293, read-out: hGIPR Emax, % ± SEM, percent of maximal response to GIP(1-42)NH2, 37° C., 0.1% bovine casein, arithmetic mean) amounted to 81.4 ± 6.09%.
Regarding `CC[C@H](C)[C@H](NC(=O)[C@H](CCCN)NC(=O)[C@H](CC(=O)O)NC(=O)[C@H](CC(C)C)NC(=O)[C@](C)(CC(C)C)NC(=O)[C@@H](NC(=O)[C@H](CO)NC(=O)[C@H](Cc1ccncc1)NC(=O)[C@H](CC(=O)O)NC(=O)[C@H](CO)NC(=O)[C@@H](NC(=O)[C@](C)(Cc1ccccc1F)NC(=O)[C@@H](NC(=O)CNC(=O)[C@H](CCC(=O)O)NC(=O)C(C)(C)NC(=O)[C@@H](N)Cc1ccc(O)cc1)[C@@H](C)O)[C@@H](C)O)[C@@H](C)CC)C(=O)N[C@@H](C)C(=O)N[C@@H](CCC(N)=O)C(=O)NC(C)(C)C(=O)N[C@@H](CCCCNC(=O)COCCOCCNC(=O)COCCOCCNC(=O)CCCCCCCCCCCCC(=O)O)C(=O)N[C@@H](Cc1ccccc1)C(=O)N[C@H](C(=O)N[C@H](CCC(=O)O)C(=O)N[C@@](C)(Cc1ccc(O)cc1)C(=O)N[C@@H](CC(C)C)C(=O)N[C@H](C(=O)N[C@@H](CCCCNC(=O)COCCOCCNC(=O)COCCOCCNC(=O)CCCCCCCCCCCCC(=O)O)C(=O)NCC(=O)NCC(=O)N1CCC[C@H]1C(=O)N[C@@H](CO)C(=O)N[C@@H](CO)C(=O)NCC(=O)N[C@@H](C)C(=O)N1CCC[C@H]1C(=O)N1CCC[C@H]1C(=O)N1CCC[C@H]1C(=O)N[C@@H](CO)C(N)=O)[C@@H](C)CC)[C@@H](C)CC` [Example 222], the Emax on hGLP-1R (HEK293, 0.1% bovine casein and 1.0% human serum albumin, 37° C., percent of maximal response to GLP-1(7-36)NH2, read-out: hGLP-1R Emax, % ± SEM) was 117%; on hGLP-1R (HEK293, percent of maximal response to GLP-1(7-36)NH2, 37° C., 0.1% bovine casein, arithmetic mean, read-out: hGLP-1R Emax, % ± SEM) it was 91.6%; at hGIPR (HEK293, 0.1% bovine casein and 1.0% human serum albumin, 37° C., percent of maximal response to GIP(1-42)NH2, read-out: hGIPR Emax, % ± SEM) it was 77.9%; at hGIPR (HEK293, percent of maximal response to GIP(1-42)NH2, 37° C., 0.1% bovine casein, arithmetic mean, read-out: hGIPR Emax, % ± SEM), 98.7%. The EC50 at hGLP-1R (incubated at 37° C., read-out: hGLP-1R EC50, nM (SEM, n)) was 0.518 nM; at hGCGR (0.1% bovine casein and 1.0% human serum albumin, 37° C., geometric mean, read-out: hGCGR EC50, nM (SEM, n)) it was over 9950 nM; at hGCGR (cAMP, incubated at 37° C., 0.1% bovine casein (no human serum albumin), geometric mean, read-out: hGCGR EC50, nM (SEM, n)), over 9950 nM; at hGIPR (incubated at 37° C., 0.1% bovine casein (no human serum albumin), geometric mean, read-out: hGIPR EC50, nM (SEM, n)), 0.0195 nM.
`CC[C@H](C)[C@H](NC(=O)[C@H](CC(C)C)NC(=O)[C@](C)(Cc1ccc(O)cc1)NC(=O)[C@H](CCCCNC(=O)COCCOCCNC(=O)COCCOCCNC(=O)CC[C@H](NC(=O)CCCCCCCCCCCCC(=O)O)C(=O)O)NC(=O)[C@@H](NC(=O)[C@H](Cc1ccccc1)NC(=O)[C@H](CCC(=O)O)NC(=O)C(C)(C)NC(=O)[C@H](CCC(N)=O)NC(=O)[C@H](C)NC(=O)[C@H](CCCCNC(=O)COCCOCCNC(=O)COCCOCCNC(=O)CC[C@H](NC(=O)CCCCCCCCCCCCC(=O)O)C(=O)O)NC(=O)[C@H](CCCN)NC(=O)[C@H](CC(=O)O)NC(=O)[C@H](CC(C)C)NC(=O)[C@](C)(CC(C)C)NC(=O)[C@@H](NC(=O)C(C)(C)NC(=O)[C@@H](NC(=O)[C@H](CC(=O)O)NC(=O)[C@H](CO)NC(=O)[C@@H](NC(=O)[C@](C)(Cc1ccccc1F)NC(=O)[C@@H](NC(=O)CNC(=O)[C@H](CCC(=O)O)NC(=O)C(C)(C)NC(=O)[C@@H](N)Cc1ccc(O)cc1)[C@@H](C)O)[C@@H](C)O)C(C)C)[C@@H](C)CC)[C@@H](C)CC)C(=O)N[C@@H](CCC(=O)O)C(=O)NCC(=O)NCC(=O)N1CCC[C@H]1C(=O)N[C@@H](CO)C(=O)N[C@@H](CO)C(=O)NCC(=O)N[C@@H](C)C(=O)N1CCC[C@H]1C(=O)N1CCC[C@H]1C(=O)N1CCC[C@H]1C(=O)N[C@@H](CO)C(N)=O` [Example 115]: the Emax on hGLP-1R (HEK293, read-out: hGLP-1R Emax, % ± SEM, percent of maximal response to GLP-1(7-36)NH2, 37° C., 0.1% bovine casein, arithmetic mean) came out at 91.6%. Further, the results for the EC50 at hGLP-1R (setting [1]), on hGCGR (setting [2]) and at hGIPR (setting [3]) were 0.16 nM, over 9950 nM and 0.103 nM, respectively.

The Emax is the greatest response seen or fitted, relative to the assay's reference. As a reminder, the EC50 is the concentration needed to bring the measured effect to its halfway point.

(Values after patent publication US20230265151A1, “GIP/GLP1 CO-AGONIST COMPOUNDS” (priority 2020, published 2023).)
